# In patent publication US8119614B2, “Substitution derivatives of N6-benzyladenosine, methods of their preparation, their use for preparation of drugs, cosmetic preparations and growth regulators, pharmaceutical preparations, cosmetic preparations and growth regulators containing these compounds” (Ustav Experimentalni Botaniky Akademie Ved Ceske Republiky, priority 2002, dated 2012):
# Entries after “also recorded” stand apart in the source; their conditions may differ.
# Columns and labels:
# HOS = experiment: In vitro cytotoxic activity, Calcein AM assay, HOS; format: cell-based; conditions: 72 hours
# [1] = tested on: human erythroleukaemia K562; experiment: In vitro cytotoxic activity, Calcein AM assay, K-562; format: cell-based; conditions: 72 hours, read-out: IC 50 K-562
# Procedure, shortened: (§1)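 Following 24 h pre-incubation of 10^4 cells per well, test compound is added in six 4-fold steps and left for 72 h at 37 °C. Surviving cells are quantified by Calcein AM cleavage (1 h), and GI50 is calculated from the dose-response curve.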
# [2] = tested on: breast carcinoma cell lines MCF-7; experiment: In vitro cytotoxic activity, Calcein AM assay, MCF7; format: cell-based, human; conditions: 72 hours, read-out: IC 50 MCF7
# Procedure, shortened: as §1
# mouse fibroblasts NIH3T3 = experiment: In vitro cytotoxic activity, Calcein AM assay, NIH-3T3; format: cell-based; conditions: 72 hours, read-out: IC 50 NIH-3T3
# Procedure, shortened: as §1
# [3] = tested on: human malignant melanoma cells G361; experiment: In vitro cytotoxic activity, Calcein AM assay, G-361; format: cell-based; conditions: 72 hours, read-out: IC 50 G-361
# Source text: One of the parameters used, as the basis for cytotoxicity assays, is the metabolic activity of viable cells. For example, a microtiter assay, which uses the Calcein AM, is now widely used to quantitate cell proliferation and cytotoxicity. For instance, this assay is used in drug screening programs and in chemosensitivity testing. Because only metabolically active cells cleave Calcein AM, these assays detect viable cells exclusively. The quantity of reduced Calcein AM corresponds to the number of vital cells in the culture.
# Human T-lymphoblastic leukemia cell line CEM; promyelocytic HL-60 and monocytic U937 leukemias; breast carcinoma cell lines MCF-7; cervical carcinoma cells HELA; mouse fibroblasts NIH3T3; human erythroleukaemia K562 and human malignant melanoma cells G361 were used for routine screening of compounds. The cells were maintained in Nunc/Corning 80 cm^2 plastic tissue culture flasks and cultured in cell culture medium (DMEM with 5 g/l glucose, 2 mM glutamine, 100 U/ml penicillin, 100 μg/ml streptomycin, 10% fetal calf serum and sodium bicarbonate).
# The cell suspensions that were prepared and diluted according to the particular cell type and the expected target cell density (10^4 cells per well based on cell growth characteristics) were added by pipette (80 μl) into 96/well microtiter plates. Inoculates were allowed a pre-incubation period of 24 hours at 37° C. and 5% CO2 for stabilisation. Four-fold dilutions of the intended test concentration were added at time zero in 20 μl aliquots to the microtiter plate wells. Usually, test compound was evaluated at six 4-fold dilutions. In routine testing, the highest well concentration was 166.7 μM, but it can be the matter of change dependent on the agent. All drug concentrations were examined in duplicates. Incubations of cells with the test compounds lasted for 72 hours at 37° C., in 5% CO2 atmosphere and 100% humidity. At the end of incubation period, the cells were assayed by using the Calcein AM. Ten microliters of the stock solution were pipetted into each well and incubated further for 1 hours. Fluorescence (FD) was measured with the Labsystem FIA Reader Fluoroscan Ascent (UK). The tumour cell survival (GI50) was calculated using the following equitation: GI50=(FDdrug exposed well/mean FDcontrol wells)×100%. The GI50 value, the drug concentration lethal to 50% of the tumour cells, was calculated from the obtained dose response curves (FIG. 3).
# [4] = tested on: Human T-lymphoblastic leukemia cell line CEM; experiment: In vitro cytotoxic activity, Calcein AM assay, CEM; format: cell-based; conditions: 72 hours
# Procedure, shortened: as §1
# promyelocytic HL-60 = experiment: In vitro cytotoxic activity, Calcein AM assay, HL60; format: cell-based, human; conditions: 72 hours, read-out: IC 50 HL60
# Procedure, shortened: as §1
# Human lymphocytes = experiment: Immunosuppressive activity: concanavalin A induced lymphocyte proliferation, [^3H]-TdR incorporation; format: cell-based; conditions: 72 hours, read-out: Human lymphocytes ED50
# Protocol: Human heparinized peripheral blood was obtained from healthy volunteers by cubital vein punction. The blood was diluted in PBS (1:3) and mononuclear cells were separated by centrifugation in Ficoll-Hypaque density gradient (Pharmacia, 1.077 g/ml) at 2200 rpm for 30 minutes. Following centrifugation, lymphocytes were washed in PBS and resuspended in cell culture medium (RMPI 1640, 2 mM glutamine, 100 U/ml penicillin, 100 μg/ml streptomycin, 10% fetal calf serum and sodium bicarbonate).
# The cells were diluted at target density of 1,100,000 cells/ml were added by pipette (180 μl) into 96/well microtiter plates. Four-fold dilutions of the intended test concentration were added at time zero in 20 μl aliquots to the microtiter plate wells. Usually, test compound was evaluated at six 4-fold dilutions. In routine testing, the highest well concentration was 266.7 μM. All drug concentrations were examined in duplicates. All wells with exception of unstimulated controls were activated with 50 μl of concanavalin A (25 μg/ml). Incubations of cells with test compounds lasted for 72 hours at 37° C., in 5% CO2 atmosphere and 100% humidity. At the end of incubation period, the cells were assayed by using the [^3H]-TdR:
# Cell cultures were incubated with 0.5 μCi (20 μl of stock solution 500 μCi/ml) per well for 6 hours at 37° C. and 5% CO2. The automated cell harvester was used to lyse cells in water and adsorb the DNA onto glass-fiber filters in the format of microtiter plate. The DNA incorporated [^3H]-TdR was retained on the filter while unincorporated material passes through. The filters were dried at room temperature overnight, sealed into a sample bag with 10-12 ml of scintillant. The amount of [^3H]-TdR present in each filter (in cpm) was determined by scintillation counting in a Betaplate liquid scintillation counter. The effective dose of immunosuppressant (ED) was calculated using the following equation: ED=(CCPMdrug exposed well/mean CCPMcontrol wells)×100%. The ED50 value, the drug concentration inhibiting proliferation of 50% of lymphocytes, was calculated from the obtained dose response curves.
# [5] = tested on: Amaranthus caudatus cotyledon/hypocotyl explants; experiment: Amaranthus bioassay (betacyanin content); format: in vivo
# Procedure, shortened: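 Surface-sterilised Amaranthus caudatus var. atropurpurea seeds were germinated 72 h at 25° C. in darkness, then de-rooted. Cotyledon/hypocotyl explants (20 per dish) were incubated under green safe light on filter paper with 1 ml medium of 10 μmol NA2HPO4-KH2PO4, pH 6.8, 5 μmol tyrosine and cytokinin (10^-8M to 10^-4M) for 48 h at 25° C. in darkness. Betacyanin was extracted in […] acetic acid and measured by absorbance at 537 nm and 620 nm.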
# Rosa multiflora = experiment: In vitro and post vitro multiplication and rooting of rose; format: in vivo
# Rosa hybrida ‘Pailin’ = experiment: Early shoot senescence inhibition of tissue cultured roses; format: in vivo; conditions: 10 μM in medium
# Protocol: Rosa hybrida ‘Pailin’ (a cut rose) was cultured in 350 ml vessels with a screw on polycarbonate lid. Each culture vessel contained 100 ml autoclaved medium (120° C., 20 min). The cultures were maintained at 23±2° C. under a 16 h photoperiod at […] m^−2 s^−1 PAR. The basal medium (MBR) contained Murashige and Skoog (1962) macroelements, microelements and vitamins, 36.7 mg/l NaFeEDTA, 50 mg/l NaFeEDDHA, […], 30 g/l sucrose, 100 mg/l glycine, 50 mg/l calcium pantothenate, 100 mg/l L-glutamine and 7 g/l agar-agar. This medium was supplemented with 10 μM of the tested cytokinin. New cytokinins were filter sterilised and added after autoclaving the medium in the vessels. 6-Benzylaminopurine (BAP) was used as a standard compound; the control medium didn't contain any cytokinin. After a culture period of 6 weeks, scoring senescence symptoms was started.
# [6] = tested on: spring wheat (variety Sandra); experiment: Field studies: yield analysis of spring wheat crop; format: in vivo; conditions: spray of 10^−6 molar solution, Control = 100.0
# Protocol: Crops (over the 4-year period) of spring wheat were sown in the experimental fields of Czech Agriculture University (CZU) (region of sugar beet production type) at a seeding rate of 400 germinative grains·m^−2 into ploughed and shoddy soil containing 116.1 mg/kg P, 228.3 mg/kg K, and 211.8 mg/kg Mg (agrochemical analyses were done at Department of Pedology CZU) (interval between ploughing and sowing is usually 3-4 days, longer only in case of adverse weather conditions). Preceding crop was rape. Soil preparation was done by the classical way using skid and harrow and after seeding is rolled.
# (§2) Height of plants, leaf area, dry matter, development of vegetation opex—bases of future spike, and number of spikelets were monitored after germination in 14 day intervals, […]. From these primary data, values used in production physiology are derived, as leaf area index LAI, photosynthetic capacity LAD, tillering potential. Experiments with treatment of spring wheat crop (variety Sandra) are carried out on the field (area 10 m^2, four replicates) by spraying 1 litr of 10^−6 molar solution of tested compound (cytokinin) at the transition period from jointing stage to athesis stage (49 DC).
# Yield analysis, evaluating spike lenght and seed number per spikelet (Σ Z/K) were carried out for 30 plant per each variant, yield from 1 m^2 and 1000 grain weight (HTS) was determined from 8 replicates, yield per ha was subsequently calculated.
# glutamate kinase = experiment: Field studies: glutamate kinase activity in spring wheat; format: in vivo; parameters: tested at 1 µM (10^-6 M spray solution); conditions: 6 days after the application, Control = 100.0
# Protocol: as §2
# Glutamate kinase activity was determined 6 days after the application. This enzyme was selected because of good corelation of its activity changes and state of transport of endogenous substances (nutrients from roots, assimilates to cariopsis), respiration, energy (adenosintriphosphate) transfer, storage of nutrients, growth and developmental proceses, and also metabolism of proline, which is known from literature to play an important role in adaptation against stress (unsuitable stand, drought, hypersalinity, coldness) and also in regulation of both theoretical and real production (restriction of seed number reduction per spikelet). Enzyme glutamate kinase catalyses to glutamate conversion into γ glutamylphosphate, which is first step of proline biosynthesis from glutamate. Therefore, this enzyme is, as essential precursor of other plant metabolic pathways, marker of stress inhibition. It can be determined spectrofotometrically (Vasáková, 1980). For analysis, acetone powder is prepared from a sample by standard method, subsequently extracted by 0.05M potassium-phosphate buffer pH=7.2 and centrifugated. Glutamate kinase fraction is precipitated using crystalline ammonium sulfate and after dialysis, glutamate kinase activity is determined spectrophotometrically. Proline accumulation increased by stress corresponds as a “feedback” to glutamate kinase inhibition.
# [7] = Ex vitro, after four weeks of acclimatising
structure (smiles),measurement,setting,value
"OC[C@H]1O[C@@H](n2cnc3c(NCc4cccc(Cl)c4O)ncnc32)[C@H](O)[C@@H]1O [2-hydroxy-3-chlorobenzylamino, 6-(2-hydroxy-3-chlorobenzylamino)purine riboside]",IC50,HOS,> 167 µM
same,IC50,[1],10.7 µM
same,IC50,[2],15 µM
same,IC50,mouse fibroblasts NIH3T3,> 167 µM
same,IC50,[3],128 µM
same,IC50,[4],0.3 µM
same,IC50,promyelocytic HL-60,0.1 µM
same,EC50,Human lymphocytes,2.1 µM
"COc1ccc(CNc2ncnc3c2ncn3[C@@H]2O[C@H](CO)[C@@H](O)[C@H]2O)c(O)c1 [2-hydroxy-4-methoxybenzylamino, 6-(2-hydroxy-4-methoxybenzylamino)purine riboside]",EC50,Human lymphocytes,1.5 µM
"OC[C@H]1O[C@@H](n2cnc3c(NCc4ccccc4O)ncnc32)[C@H](O)[C@@H]1O [2-hydroxybenzylamino, 6-(2-hydroxybenzylamino)purine riboside]",IC50,HOS,2.8 µM
same,IC50,[1],88 µM
same,IC50,[2],11.4 µM
same,IC50,mouse fibroblasts NIH3T3,43.2 µM
same,IC50,[3],> 167 µM
same,IC50,[4],0.7 µM
same,IC50,promyelocytic HL-60,0.42 µM
same,EC50,Human lymphocytes,4.8 µM
"OC[C@H]1O[C@@H](n2cnc3c(NCc4ccc(O)c(O)c4)ncnc32)[C@H](O)[C@@H]1O [3,4-dihydroxybenzylamino, 6-(3,4-dihydroxybenzylamino)purine riboside]",EC50,Human lymphocytes,8.3 µM
same,Concentration with highest activity,[5]; 48 h dark,10^−4 mol · l^−1
same,Activity (%) [10^−5 mol · l^−1 BAP = 100%],[5]; at concentration with highest activity,8 ± 3%
"OC[C@H]1O[C@@H](n2cnc3c(NCc4cccc(O)c4)ncnc32)[C@H](O)[C@@H]1O [3-hydroxybenzylamino, 6-(3-hydroxybenzylamino)purine riboside]",IC50,HOS,> 167 µM
same,IC50,[1],> 167 µM
same,IC50,[2],> 167 µM
same,IC50,mouse fibroblasts NIH3T3,> 167 µM
same,IC50,[3],> 167 µM
same,IC50,[4],51.9 µM
same,IC50,promyelocytic HL-60,23.7 µM
same,EC50,Human lymphocytes,10.7 µM
"c1ccc(CNc2ncnc3nc[nH]c23)cc1 [BAP, 6-benzylaminopurine, reference compound]",shoot multiplication and rooting (in words),Rosa multiflora; 10 μM in medium,"high shoot multiplication rate, but the shoots rooted badly"
same,Root number per plant,Rosa multiflora; [7],0.6
same,Total root length per plant (cm),Rosa multiflora; [7],1.1 cm
same,Flower number per explant,"Rosa multiflora; In vitro, 10 μM, 8 weeks",0.00
same,Number of new shoots per explant,"Rosa multiflora; In vitro, 10 μM, 8 weeks",3.8
same,Root number per explant,"Rosa multiflora; In vitro, 10 μM, 8 weeks",0.0
same,Total root length per explant (cm),"Rosa multiflora; In vitro, 10 μM, 8 weeks",0.0 cm
same,senescence / dying of rose explants (in words),Rosa hybrida ‘Pailin’,the relative number of dead plants looks like a sigmoid curve; also recorded: dead Rosa explant
same,HTS (%) (1000 grain weight),[6],102.0%
same,Yield(%),[6],115.4%
same,Σ Z/K (%) (seed number per spikelet),[6],111.9%
same,Σ spike/m^2 (%),[6],101.1%
same,GK % (glutamate kinase activity),glutamate kinase,108.2%
"OC[C@H]1O[C@@H](n2cnc3c(NCc4ccccc4)ncnc32)[C@H](O)[C@@H]1O [BAPR, 6-benzylaminopurine riboside, reference compound]",HTS (%) (1000 grain weight),[6],103.8%
same,Yield(%),[6],121.9%
same,Σ Z/K (%) (seed number per spikelet),[6],114.3%
same,Σ spike/m^2 (%),[6],102.7%
same,GK % (glutamate kinase activity),glutamate kinase,154.1%
"Oc1cccc(CNc2ncnc3nc[nH]c23)c1 [mT, 6-(3-hydroxybenzylamino)purine]",senescence / dying of rose explants (in words),Rosa hybrida ‘Pailin’,the situation improved
